Read-outs that look alike come from different tables or passages of the source.
Tests used:
[1] = target: T1, DPP-VIII (Homo sapiens, UniProt Q6V1X1); experiment: DPP-VIII inhibition, Promega DPPIV-Glo Protease Assay; format: biochemical; conditions: read-out: IC50 DPP8
T1 construct: purchased Bioscience 80080
Procedure: (§1) The compounds of the present invention were tested to determine their DPP-IV, DPP-VIII, DPP-IX inhibition activity according to the following methods. The half inhibition concentrations IC50 (the concentration of the test compound showing 50% inhibition to the enzyme activity) of each compound were determined by reaction test and calculation of the mixture of fixed amounts of enzyme and substrate with several different concentrations of the test compounds.
(§2) The compounds of the present invention were tested to determine the DPP-IV, DPP-VIII, DPP-IX inhibition activity in the following tests using Promega DPPIV-Glo™ Protease Assay (Cat No. G8350/G8351) Kit, wherein:
b. DPP-VIII enzyme bought from Bioscience, Catalog no. 80080;
(§3) The preparation procedure of the conventional reagent such as DPPIV-Glo buffer, luciferin reagents needed in the test and the detail operation of the test can refer to the specifications of the kits. The assay was carried out as following steps:
(§4) The tested compounds were dissolved in DMSO to prepare a series of different concentrations of the test compound solution. DPPIV-Glo buffer and the freezing luciferin detection reagent were equilibrated to room temperature. The luciferin detection reagent was dissolved in moderate buffer in a brown flask to form a solution. Then DPP-IV-Glo. was dissolved in ultrapure water to give the appropriate concentration. The substrate solution and the luciferin detection reagent solution were mixed sufficiently in an appropriate ratio (the ratio of the invention is 1:49), and the mixture was layed at room temperature for 30-60 minutes. Tris buffer (2 mM, pH 8.0), the test compounds and DPP-IV (DPP-VIII or DPP-IX) were mixed and then transferred to a 96-well plate. Each test contains double-well of three-well control. The same volume of DMSO was added to the negative control and blank control. Then the 96-well plate was added with mixed solution of luciferin detection reagent and substrate to initiate the reaction. The 96-wells plate was incubated at room temperature on a plate shaker for 40 minutes after sealed. The strength of the fluorescent signal in each well was determined by microplate reader and the inhibition rate to the enzyme of the compound at this concentration was calculated by the formula as following: inhibitory rate: IR=[1−(S−B)/(N−B)]*100% • S: value of the sample • B: value of the blank control • N: value of the negative control
(§5) IC50 of the test compounds can be calculated by the inhibition rate at different concentration.

[2] = target: T2, DPP-IV (Homo sapiens, UniProt P27487); experiment: DPP-IV inhibition, Promega DPPIV-Glo Protease Assay; format: biochemical
T2 construct: purchased Calbiochem 317630
Procedure: as §1, §2
a. DPP-IV enzyme bought from Calbiochem, Catalog no. 317630;
as §3, §4, §5

[3] = target: T3, DPP-IX (Homo sapiens, UniProt Q86TI2); experiment: DPP-IX inhibition, Promega DPPIV-Glo Protease Assay; format: biochemical; conditions: read-out: IC50 DPP9
T3 construct: purchased Bioscience 80090
Procedure: as §1, §2
c. DPP-IX enzyme bought from Bioscience, Catalog no. 80090.
as §3, §4, §5

[4] = Solubility experiment in four systems; format: physicochemical
Procedure: According to the conventional solubility measurement, the solubility of the test samples were determined in four different systems: phosphate buffer solution (PBS, pH=7.4), methanol, 0.1% hydrochloric acid and water.

[5] = tested on: normal ICR mice; experiment: Hypoglycemic effect, oral glucose tolerance in normal ICR mice; format: in vivo; conditions: 10 mg/kg by gavage, glucose 4 g/kg 15 minutes after administration, 10 mg/kg
Procedure: To observe the effects on oral glucose tolerance of the compounds of Example 1-4 and Example 8-12 in normal ICR mice (SINO-BRITSH SIPPR/BK LAB.ANIMAL LTD., CO), the hypoglycemic effects in vivo have been evaluated using blood-glucose meter to measure and analyze the sugar content of the samples at different time points during 2 hours. The samples were taken from the mouse's tail.
The administration dose was 10 mg/kg, and the blank was administered with water. Both groups contained 5% DMSO.
The mice were administered by gavage. 4 g/kg of 10% glucose solution was administered (0.8 mL to each mice) 15 minutes after administration.
The mice were administered according to above dose (the blank group was administrated with 5% DMSO aqueous solution) and the blood sugar value was measured (−15 minutes).
15 minutes after administration, the mice were administered of 4 g/kg of 20% glucose solution and the values of blood sugar were tested by Roche ACCU-CHEK at 0, 15, 30, 45, 60, 120 minutes.

T1 sequence (Q6V1X1 whole entry): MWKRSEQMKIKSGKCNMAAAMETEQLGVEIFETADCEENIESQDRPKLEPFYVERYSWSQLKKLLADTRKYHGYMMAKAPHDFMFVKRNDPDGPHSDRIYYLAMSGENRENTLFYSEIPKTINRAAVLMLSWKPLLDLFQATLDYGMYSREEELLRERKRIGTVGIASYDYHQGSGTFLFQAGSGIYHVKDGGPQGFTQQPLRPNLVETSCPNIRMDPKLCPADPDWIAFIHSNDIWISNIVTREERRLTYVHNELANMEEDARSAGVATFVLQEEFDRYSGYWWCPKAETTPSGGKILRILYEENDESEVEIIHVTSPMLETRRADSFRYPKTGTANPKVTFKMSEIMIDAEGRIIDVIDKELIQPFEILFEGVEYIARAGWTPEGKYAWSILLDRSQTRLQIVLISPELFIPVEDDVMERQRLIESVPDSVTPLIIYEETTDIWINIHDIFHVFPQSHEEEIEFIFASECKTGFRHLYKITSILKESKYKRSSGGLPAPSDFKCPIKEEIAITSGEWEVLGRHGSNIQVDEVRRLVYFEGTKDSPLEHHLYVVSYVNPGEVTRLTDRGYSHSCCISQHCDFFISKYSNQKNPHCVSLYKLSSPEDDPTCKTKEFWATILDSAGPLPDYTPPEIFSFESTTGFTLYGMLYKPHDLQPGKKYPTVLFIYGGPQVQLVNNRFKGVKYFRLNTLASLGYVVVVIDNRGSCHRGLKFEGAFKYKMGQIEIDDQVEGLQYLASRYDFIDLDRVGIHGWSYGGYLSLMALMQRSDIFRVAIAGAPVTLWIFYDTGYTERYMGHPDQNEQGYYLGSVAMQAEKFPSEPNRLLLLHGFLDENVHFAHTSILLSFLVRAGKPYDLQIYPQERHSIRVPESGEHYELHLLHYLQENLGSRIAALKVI
T3 sequence (Q86TI2 whole entry): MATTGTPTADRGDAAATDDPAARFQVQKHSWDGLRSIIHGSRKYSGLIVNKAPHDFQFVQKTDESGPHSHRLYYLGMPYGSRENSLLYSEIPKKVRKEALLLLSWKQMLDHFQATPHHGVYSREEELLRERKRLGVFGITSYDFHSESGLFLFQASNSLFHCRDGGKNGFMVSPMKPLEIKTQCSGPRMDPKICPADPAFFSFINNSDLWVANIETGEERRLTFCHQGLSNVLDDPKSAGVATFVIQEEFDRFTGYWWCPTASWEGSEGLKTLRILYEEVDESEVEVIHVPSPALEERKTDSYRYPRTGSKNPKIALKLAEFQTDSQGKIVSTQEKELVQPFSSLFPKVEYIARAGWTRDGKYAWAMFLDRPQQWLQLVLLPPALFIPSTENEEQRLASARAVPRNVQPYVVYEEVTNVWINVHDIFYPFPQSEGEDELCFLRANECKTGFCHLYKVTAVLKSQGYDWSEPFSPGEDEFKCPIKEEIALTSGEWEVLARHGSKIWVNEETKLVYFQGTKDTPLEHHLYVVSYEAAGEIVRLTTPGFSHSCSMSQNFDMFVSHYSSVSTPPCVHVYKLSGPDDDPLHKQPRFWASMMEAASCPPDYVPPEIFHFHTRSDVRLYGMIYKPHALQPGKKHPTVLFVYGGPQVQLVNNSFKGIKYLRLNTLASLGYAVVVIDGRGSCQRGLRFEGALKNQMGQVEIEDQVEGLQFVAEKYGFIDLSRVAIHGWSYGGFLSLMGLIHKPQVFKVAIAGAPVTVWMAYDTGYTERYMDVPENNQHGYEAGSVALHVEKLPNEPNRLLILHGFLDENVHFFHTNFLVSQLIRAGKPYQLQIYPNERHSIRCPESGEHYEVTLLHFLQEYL
T2 sequence (P27487 whole entry): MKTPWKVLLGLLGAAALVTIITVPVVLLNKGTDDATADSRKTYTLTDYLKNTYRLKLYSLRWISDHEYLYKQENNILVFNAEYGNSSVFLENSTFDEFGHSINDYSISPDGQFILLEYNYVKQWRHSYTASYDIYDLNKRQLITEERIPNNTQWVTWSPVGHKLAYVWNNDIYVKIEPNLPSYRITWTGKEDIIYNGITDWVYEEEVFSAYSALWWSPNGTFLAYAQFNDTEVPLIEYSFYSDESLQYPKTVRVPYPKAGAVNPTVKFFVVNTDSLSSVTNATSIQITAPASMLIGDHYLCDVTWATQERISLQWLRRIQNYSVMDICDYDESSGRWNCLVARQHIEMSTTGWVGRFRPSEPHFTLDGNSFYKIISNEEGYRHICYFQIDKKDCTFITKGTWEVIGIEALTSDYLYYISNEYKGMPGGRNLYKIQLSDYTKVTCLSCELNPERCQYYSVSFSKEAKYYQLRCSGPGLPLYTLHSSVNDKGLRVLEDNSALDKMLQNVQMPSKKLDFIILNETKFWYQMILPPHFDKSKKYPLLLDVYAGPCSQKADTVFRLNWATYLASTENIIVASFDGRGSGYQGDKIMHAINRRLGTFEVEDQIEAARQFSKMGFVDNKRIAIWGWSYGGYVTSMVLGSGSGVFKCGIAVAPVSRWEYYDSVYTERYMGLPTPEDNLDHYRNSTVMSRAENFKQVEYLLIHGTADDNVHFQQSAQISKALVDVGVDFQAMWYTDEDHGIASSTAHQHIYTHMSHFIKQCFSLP

| SMILES | IC50 [1] | IC50 [2] | IC50 [3] | solubility ([4]; 0.1% hydrochloric acid, simulated gastric fluid, 0.1% hydrochloric acid, read-out: Solubility Value, 0.1% HCl) | solubility ([4]; methanol, organic solvent or mixture, methanol, read-out: Solubility Value, methanol) | solubility ([4]; phosphate buffer solution (PBS), pH 7.4, aqueous buffer, PBS pH 7.4, read-out: Solubility Value, PBS (pH 7.4)) | solubility ([4]; water, read-out: Solubility Value, water) | Hypoglycemic rate of blood sugar of 30 minutes after administration [5] | Solubility Value, 0.1% HCl ([4]; 0.1% hydrochloric acid) | Solubility Value, PBS (pH 7.4) ([4]; PBS pH 7.4) | Solubility Value, methanol ([4]; methanol) | Solubility Value, water ([4]; water) |
| --- | --- | --- | --- | --- | --- | --- | --- | --- | --- | --- | --- | --- |
| N[C@@H](CC(=O)N1CCn2c(C(F)(F)F)nc(C(=O)[O-])c2C1)Cc1cc(F)c(F)cc1F.[Li+] [Example 5, Lithium (R)-7-[3-amino-4-(2,4,5-trifluorophenyl)butanoyl]-3-trifluoromethyl-5,6,7,8-tetrahydro-imidazo[1,5-a]pyrazine-1-carboxylate] | 80.5 µM | 0.025 µM | 50.6 µM | 101 mg/mL | 50.3 mg/mL | 60.5 mg/mL | 40.2 mg/mL | – | – | – | – | – |
| N[C@@H](CC(=O)N1CCn2c(C(F)(F)F)nc(C(=O)O)c2C1)Cc1cc(F)c(F)cc1F [Example 8, Triethylammonium (R)-7-[3-amino-4-(2,4,5-trifluorophenyl)butanoyl]-3-(trifluoromethyl)-5,6,7,8-tetrahydro-imidazo[1,5-a]pyrazine-1-carboxylate] | 152 µM | – | 136 µM | – | – | – | – | 19.82% | 8.3 mg/mL | 0.2 mg/mL | 20.1 mg/mL | 0.5 mg/mL |
| N[C@@H](CC(=O)N1CCn2c(C(F)(F)F)nc(C(=O)O)c2C1)Cc1cc(F)c(F)cc1F [Example 10, 2-Hydroxyethyl(trimethyl)ammonium (R)-7-[3-Amino-4-(2,4,5-trifluorophenyl)-butanoyl]-3-trifluoromethyl-5,6,7,8-tetrahydro-imidazo[1,5-a]pyrazine-1-carboxylate] | 210 µM | 0.023 µM | 166 µM | – | – | – | – | 20.92% | 15.2 mg/mL | 1.2 mg/mL | 40.3 mg/mL | 1.5 mg/mL |
